Earlier results as cited in patent publication US20210153530A1, “FOOD PROTECTING COMPOSITION FOR MEAT, MEAT PRODUCTS AND DAIRY PRODUCTS” (priority 2018, published 2021).

Experiments:
[1] = tested on: moulds and yeasts; conditions: raw pork, heat-treated and pasteurised
[2] = tested on: coliform microorganisms and arerobic spore-forming microorganisms; conditions: raw pork goulash, heat-treated

## N=C(N)N [guanidium]
[1]
  effect on growth of moulds and yeasts: has an effect on the growth
[2]
  influence on coliform and aerobic spore-forming microorganisms: not significantly influenced
